Results from patent publication US11753603B2, “Acidic cleaning and disinfecting compositions comprising a citric/methansulfonic acid mixture” (THE CLOROX COMPANY, priority 2020, dated 2023).

System: bacterial population
Experiment: Suspension test (kill in 10 minutes)
Conditions: 0.1% citric acid alone
Experimental: Formula A of Table I includes addition of LAE (0.1%) plus APG (1.0%) and enables the use of citric acid levels as low at 0.1% with complete kill in suspension test in 10 minutes.

## O=C(O)CC(O)(CC(=O)O)C(=O)O [citric acid]
  kill in suspension test: little or no kill
